According to US20070128217A1 (priority 2003, published 2007):

Legend:
[1] = tested on: rabbit serum obtained by immunizing a rabbit with the SARS-CoV strain Frankfurt 1; type: binding; design: Binding of a rabbit serum to linear peptides / Binding of a rabbit serum to looped peptides / Rabbit serum linear peptides / Rabbit serum looped peptides / Binding of a rabbit serum to linear peptides of protein N of SARS-CoV Urbani (Rabbit serum linear peptides) / Binding of a rabbit serum to looped/cyclic peptides of protein N of SARS-CoV Urbani (Rabbit serum looped peptides): unit not given here
[2] = tested on: antibodies in sera from SARS patients (sera 1a, 1b, 2, 6, 37, 62, London, SARS-yellow, SARS-green); type: binding, human
[3] = tested on: control sera (pooled serum of ten healthy LUMC hospital workers; commercial negative donor pooled serum from the Dutch bloodbank); type: binding, human

Sequence	Binding of a rabbit serum to linear peptides [1]	Binding of a rabbit serum to looped peptides [1]	Binding of serum 1a to linear peptides of protein E of SARS-CoV Urbani [2]	Binding of serum 1a to looped/cyclic peptides of protein E of SARS-CoV Urbani [2]	Binding of serum 1b to linear peptides of protein E of SARS-CoV Urbani [2]	Binding of serum 1b to looped/cyclic peptides of protein E of SARS-CoV Urbani [2]	Binding of serum 2 to linear peptides of protein E of SARS-CoV Urbani [2]	Binding of serum 2 to looped/cyclic peptides of protein E of SARS-CoV Urbani [2]	Binding of serum 6 to linear peptides of protein E of SARS-CoV Urbani [2]	Binding of serum 6 to looped/cyclic peptides of protein E of SARS-CoV Urbani [2]	Binding of serum 37 to linear peptides of protein E of SARS-CoV Urbani [2]	Binding of serum 37 to looped/cyclic peptides of protein E of SARS-CoV Urbani [2]	Binding of serum 62 to linear peptides of protein E of SARS-CoV Urbani [2]	Binding of serum 62 to looped/cyclic peptides of protein E of SARS-CoV Urbani [2]	Binding of serum London to linear peptides of protein E of SARS-CoV Urbani [2]	Binding of serum London to looped/cyclic peptides of protein E of SARS-CoV Urbani [2]	Binding of serum SARS-green to linear peptides of protein E of SARS-CoV Urbani [2]	Binding of serum SARS-green to looped/cyclic peptides of protein E of SARS-CoV Urbani [2]	Binding of serum SARS-yellow to linear peptides of protein E of SARS-CoV Urbani [2]	Binding of serum SARS-yellow to looped/cyclic peptides of protein E of SARS-CoV Urbani [2]	other results
VFLLVTLAILTALRL	0.4	0.3	0.7	0.4	0.4	0.2	0.4	0.4	0.5	0.2	0.6	0.4	0.6	0.5	0.5	0.3	0.4	0.2	0.0	0.5	Binding of Control Serum Blood-Bank to Looped peptides [3]: 0.4; Binding of Control serum Blood-bank to linear peptides [3]: 0.5; Binding of Control serum LUMC to linear peptides [3]: 0.3; Binding of Control serum LUMC to looped peptides [3]: 0.5
VLLFLAFVVFLLVTL	0.5	0.5	0.8	0.6	0.9	0.5	0.8	0.5	0.9	0.4	0.8	0.6	0.8	0.8	0.6	0.4	0.5	0.3	0.3	0.6	Binding of Control Serum Blood-Bank to Looped peptides [3]: 0.5; Binding of Control serum Blood-bank to linear peptides [3]: 0.8; Binding of Control serum LUMC to linear peptides [3]: 0.5; Binding of Control serum LUMC to looped peptides [3]: 0.7
VSEETGTLIVNSVLL	0.4	0.1	0.8	0.7	0.5	0.6	0.3	0.6	0.4	0.5	0.5	0.7	0.7	0.9	0.5	0.5	0.4	0.6	0.1	0.7	Binding of Control Serum Blood-Bank to Looped peptides [3]: 0.9; Binding of Control serum Blood-bank to linear peptides [3]: 0.8; Binding of Control serum LUMC to linear peptides [3]: 0.5; Binding of Control serum LUMC to looped peptides [3]: 0.7
YSFVSEETGTLIVNS	0.2	0.4	0.8	0.7	0.7	0.5	0.5	0.7	0.5	0.4	0.6	0.8	0.5	0.8	0.7	0.4	0.7	0.4	0.6	0.7	Binding of Control Serum Blood-Bank to Looped peptides [3]: 0.6; Binding of Control serum Blood-bank to linear peptides [3]: 0.7; Binding of Control serum LUMC to linear peptides [3]: 1.0; Binding of Control serum LUMC to looped peptides [3]: 0.8
